Test results reported in PubChem BioAssay AID179 (DTP/NCI, 2004).
Activity calls are given as the source filed them.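 How the source made its calls: active means compounds giving half or more protection of infected cells from virus-caused growth loss, again on retest; inactive means the rest.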

Test system: CEM cells HIV-1 protection, formazan growth assay
Test: NCI AIDS Antiviral Assay
Settings: for IC50: measured here: growth of uninfected CEM cells
Summary of the method: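 Protection of CEM cells against HIV-1 measured as cell growth via soluble formazan read-out, with five concentrations tested on both infected and uninfected cells; failure to protect may reflect toxicity.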

Structure (SMILES) | EC50 [µM] | IC50 [µM] | outcome
CN(C)C(=S)SSC(=S)SSC(=S)N(C)C | > 2 | 0.646 | –
COC(=O)C12C3C4(C(=O)OC)C1C1(C(=O)OC)C2C3(C(=O)OC)C41C(=O)N(C(C)C)C(C)C (stereo not given) | > 200 | > 200 | –
CCCCCCCCCCCCCCC(C(=O)O)C(=O)O | > 832 | 398 | –
N#Cc1ccnc(C(=O)N2CCCC2C(=O)O)c1 (stereo not given) | > 200 | > 200 | –
COC(=O)C1CCC(=O)N1C(c1ccccc1)c1ccc(OC)c(OC)c1 (stereo not given) | > 200 | > 200 | –
CS(=O)(=O)NNS(=O)(=O)c1cccc([N+](=O)[O-])c1 | > 617 | > 617 | –
CC(=O)c1ccc2c(c1)CC1(C2)Cc2cc3c(cc2C1)C(=O)CC3 (stereo not given) | > 200 | 0.234 | –
CCN(CC)C(=C(C(Cl)=C(Cl)Cl)[N+](=O)[O-])N(CC)CC | > 200 | 117 | –
C[C@@H](c1ccccc1)N1CN(C(=O)OCc2ccccc2)C(CO)C1=O (stereo not given in full) | > 200 | 186 | –
O=c1[nH]nc(Cc2ccccc2)n1/N=C/c1ccncc1 | 72.4 | 158 | –
Nc1ccc(S(=O)(=O)N/N=C/c2ccco2)cc1 | > 676 | > 676 | –
CCOC(=O)C1(C#N)CC1 | – | – | inactive
Oc1ccc(N=C2N=c3c(c4ccccc4c4ccccc34)=N2)c2ccccc12 | > 200 | 4.57 | –
Cc1cn(C(CCO)CCO)c(=O)[nH]c1=O | > 200 | > 200 | –
COc1ccc2c3c1C(=O)CCC3CO2 (stereo not given) | – | – | inactive
OC1=C2CCCCCC2=[N+]2CCCCC2C1 (stereo not given) | > 200 | > 200 | –
CC(C)=CCC1(c2ccccc2)Oc2cccnc2-n2cccc2C1=O (stereo not given) | > 200 | 28.8 | –
FC(F)(F)c1ccc2nc(Nc3ccc(Cl)c(Cl)c3)c(-c3ccccc3)nc2c1 | > 12 | 8.13 | –
O=C(O)CSc1n[nH]c(-c2ccco2)n1 | > 224 | > 224 | –
COC(=O)CCC1=CCC2(SC)C(=O)Nc3cccc1c32 (stereo not given) | > 200 | > 200 | –
N=C(N)c1ccc(OCCCOc2ccc(C(=N)N)cc2)cc1 | > 200 | 17 | –
CCOC(=O)C(Cl)(NC(=O)OCc1ccccc1)C(F)(F)F (stereo not given) | – | – | inactive
O=C(OCCSSCCOC(=O)c1ccc([N+](=O)[O-])cc1)c1ccc([N+](=O)[O-])cc1 | > 200 | 12 | –

Structure (SMILES) | EC50 [µM] | IC50 [µM] | outcome
CC1(C)C(=O)C(O)=CC2C1=CCC1C2(C)C(=O)CC2(C)C(C(C)(O)C(=O)CC(O)C(C)(C)O)C(O)CC12C (stereo not given) | > 20 | 1.32 | –
O=C(C(=O)N1CCc2ccccc21)c1c[nH]c2ccccc12 | > 200 | > 200 | –
COC(=O)c1cc2c(c(C(=O)OC)c1O)C(=O)C=CC2=O | > 25.1 | 6.61 | –
CC(=O)OC12CC[N+]3(C)CCCCC3C1=Nc1ccccc12 (stereo not given) | > 589 | 479 | –
CCC(=S)N(C)O | > 20.9 | 0.174 | –
O=c1cc(N2CCOCC2)n2c(ccc3ccccc32)n1 | > 200 | 186 | –
O=c1ssc(=Nc2ccc(Cl)cc2)n1-c1ccc(Cl)cc1 | > 200 | 8.91 | –
CC1=C(/C=C/C(C)=C/C=C/C(C)=C/C=C/C=C(C)/C=C/C=C(C)/C=C/C=C(C)/C=C/C=C(\C)C(=O)O)C(C)(C)CCC1 | > 4.79 | > 4.79 | –
COc1ccc(OC2OC(CO)C(O)C(O)C2O)cc1 (stereo not given) | > 200 | > 200 | –
Nc1nccc(NCC2(CO)CC(CCc3ccccc3)C2)n1 (stereo not given) | > 200 | 10.5 | –
Cn1c(=O)oc2cc(Br)ccc21 | > 200 | > 200 | –
O=[N+]([O-])c1ccccc1Sc1ccccc1[N+](=O)[O-] | > 7.94 | – | –
C#CCNCC(=O)O | 46.8 | > 200 | –
COc1cccc(/C=C\c2ccc(O)cc2)c1 | > 200 | 4.27 | –
CN(C)CCNc1nc(-c2ccc3ccccc3c2)nc2nc[nH]c12 | > 200 | 3.8 | –
Cn1c(=O)c2c(nc3n2C(CCl)CO3)n(C)c1=O (stereo not given) | – | – | inactive
CC1OC(OC2C(CO)OC(O[C@H]3CC[C@@]4(C)C(=CC[C@H]5[C@@H]6C[C@@H]7O[C@](O)(CC[C@H](C)COC8OC(CO)C(O)C(O)C8O)[C@@H](C)[C@@H]7[C@@]6(C)CC[C@@H]54)C3)C(OC3OC(C)C(O)C(O)C3O)C2O)C(O)C(O)C1O (stereo not given in full) | > 200 | 1.48 | –
O=C(N/C(=C\c1cc(Cl)ccc1Cl)c1nc2[nH]c(=S)[nH]c(=O)c2[nH]1)c1ccccc1 | > 79.4 | 21.9 | –
CCCCCC(=Nc1n[nH]nc1C(N)=O)OCC | > 200 | > 200 | –
CC(=O)CC1(C)OC(N)=C(C#N)C1(C#N)C#N (stereo not given) | > 200 | 162 | –
CC1(C)Cc2nnsc2C2=C1C(=O)CCS2 | – | – | inactive
c1ccc(P(=C2c3ccccc3-c3ccccc32)(c2ccccc2)c2ccccc2)cc1 | – | – | inactive
COc1cccc(NC(=O)C(=O)C2C=CCS2(=O)=O)c1 (stereo not given) | > 63.1 | > 63.1 | –
